Values quoted from earlier work in patent EP2792015B1, “HIGH SPECIFIC-ENERGY LI/02-CO2 BATTERY” (Robert Bosch GmbH, priority 2011, dated 2013).
≈ marks a conversion by molar mass, not a printed value. Like-named read-outs stand apart in the source and are kept apart here.

Details: 1 atmosphere and 25°C

Row | Structure (SMILES) | Solubility (in H2O) [µg/mL] | Solubility (in propylene carbonate) [µg/mL]
1 | O=C=O [CO2, carbon dioxide] | 1450 (≈ 32.9 mM) | 6115 (≈ 139 mM)
2 | O=O [O2, oxygen] | 8.3 (≈ 0.259 mM) | 110 (≈ 3.44 mM)
